{
  "source": "patent US8637237B2",
  "about": "“Methods, compositions, and systems for the identification of species-specific or developmental stage-specific insecticides” (The University of North Carolina at Greensboro, priority 2003, dated 2014)",
  "biological_target": "T1, EcRB2/USP (Drosophila melanogaster, UniProt P34021)",
  "T1 construct": "The plasmid encodes a version of EcRB2 that includes 669 amino acids, and deletes the F domain; expressed in transfected cells; host or cells: CHO",
  "T1 sequence (P34021 1-669 isoform P34021-3)": "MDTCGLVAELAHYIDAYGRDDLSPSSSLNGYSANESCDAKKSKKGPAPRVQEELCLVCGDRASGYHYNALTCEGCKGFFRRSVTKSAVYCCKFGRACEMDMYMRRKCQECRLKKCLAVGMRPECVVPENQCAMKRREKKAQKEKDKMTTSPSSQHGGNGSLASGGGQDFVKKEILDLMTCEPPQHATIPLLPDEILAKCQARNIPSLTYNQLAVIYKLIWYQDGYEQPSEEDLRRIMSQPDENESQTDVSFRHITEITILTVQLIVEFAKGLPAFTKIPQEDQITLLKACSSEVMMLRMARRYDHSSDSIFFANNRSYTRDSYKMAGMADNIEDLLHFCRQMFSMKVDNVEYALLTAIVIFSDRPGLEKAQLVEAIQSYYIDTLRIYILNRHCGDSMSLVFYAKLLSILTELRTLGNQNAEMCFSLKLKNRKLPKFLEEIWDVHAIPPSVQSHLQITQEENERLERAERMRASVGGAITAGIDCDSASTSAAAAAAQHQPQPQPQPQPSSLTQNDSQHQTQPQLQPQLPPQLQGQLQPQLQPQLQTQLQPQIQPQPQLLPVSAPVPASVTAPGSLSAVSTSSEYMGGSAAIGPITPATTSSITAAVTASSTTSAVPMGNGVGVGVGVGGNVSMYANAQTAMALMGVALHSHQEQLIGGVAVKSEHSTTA",
  "T1 sequence (O76202 192-472 partner)": "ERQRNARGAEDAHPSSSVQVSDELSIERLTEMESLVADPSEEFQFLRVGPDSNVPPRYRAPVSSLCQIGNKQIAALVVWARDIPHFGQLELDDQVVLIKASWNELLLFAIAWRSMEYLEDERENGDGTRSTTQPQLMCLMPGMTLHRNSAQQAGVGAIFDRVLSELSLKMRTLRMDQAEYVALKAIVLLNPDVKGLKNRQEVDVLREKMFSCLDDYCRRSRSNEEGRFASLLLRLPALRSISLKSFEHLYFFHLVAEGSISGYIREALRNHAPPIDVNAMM",
  "assay": "EcRB2 isoform with USP (VP16CfUSP), (EcRE)5-ΔMTV-LUC in CHO cells",
  "assay_type": "cell-based",
  "method": "These experiments employed a mammalian cell culture system using Chinese hamster ovary cells (CHO) to evaluate the transcriptional function of Drosophila melanogaster EcR and USP using methods described previously (U.S. Patent Application Publication No: 2005/0049230; Henrich et al, 2003). Cells were seeded in 6-well polypropylene culture plates (Falcon) with 10^5 cells per well on the day prior to transfection. Transfection was subsequently performed using either calcium phosphate (Kitareewan et al., 1996, Mol. Biol. Cell, 7:1153-1196) or a GenePorter reagent (Gene Therapy Systems, Inc; San Diego, Calif.) following manufacturer's protocols. Each well received 1.25 μg of (EcRE)5-ΔMTV-CAT (five copies of the hsp27 EcRE inserted into an mouse mammary tumor virus (MTV) promoter upstream of the chloramphenicol acetyltransferase (CAT) gene) or (EcRE)5-ΔMTV-LUC (the same promoter attached to firefly luciferase), 1.25 μg of pCH111 (SV40 early promoter linked to the β-galactosidase gene) to normalize CAT activity, and 0.25 μg of each expression plasmid (EcR, FXR, RXR, USP) that was tested. The cells were incubated with plasmid DNA for seven hours and then washed with 1×PBS. Muristerone A (murA; Alexis Biochemicals) or 20-hydroxyecdysone (20E; Sigma) dissolved in ethanol to a concentration of 10 mM was diluted as necessary to the final assay concentration (FAC) in 2 ml of fresh incubation medium that was then applied to the cells. Similarly, JHIII (Sigma) was dissolved in dimethyl sulfoxide (DMSO) to a concentration of […] and diluted into the incubation medium to its final assay concentration (20, 40, 80, 160 μM). […] A corresponding volume of ethanol and DMSO were added to control cells for all experiments. For all experiments, the cells were allowed to incubate with the medium for 24 hours before collection and cell lysates were prepared by described methods (Kitareewan et al., 1996). Both β-galactosidase and CAT reporter activity were measured based on previously used methods (Kitareewan et al, 1996). Luciferase assays using luciferrin followed the specifications of the manufacturer.\nTranscriptional activity, measured as ^14C-chloramphenicol counts (for measuring CAT activity) or relative luciferase activity (RLU) was quantified for each cell lysate. The counts were then normalized by adjusting for differences in β-galactosidase activity, since β-galactosidase expression is controlled by a constitutive promoter and provides an estimate of cell mass. Data were normalized as fold-induction based on differences in reporter gene activity between hormonally treated and control cells.",
  "data": [
    {"smiles": "CC(C)(O)CC[C@@H](O)[C@](C)(O)[C@H]1CC[C@@]2(O)C3=CC(=O)[C@@H]4C[C@@H](O)[C@@H](O)C[C@]4(C)[C@H]3CC[C@]12C", "note": "[20E, 20-hydroxyecdysone]", "values": [
      {"measurement": "transcriptional response to 20E", "setting": "EcRB2 + VP16CfUSP, 10 μM 20E", "result": "consistent and discernible transcriptional response"},
      {"measurement": "20E (inducibility)", "setting": "EcRB2/USP, 10 μM 20E", "result": "+ ((+) designates a change in transcriptional level that exceeds 2.5-fold)"}
    ]},
    {"smiles": "COC(=O)/C=C(\\C)CC/C=C(\\C)CC[C@H]1OC1(C)C", "note": "[JHIII, juvenile hormone III]", "values": [
      {"measurement": "potentiation of 20E response by JHIII", "setting": "EcRB2 + VP16CfUSP, 10 μM 20E plus JHIII", "result": "potentiated significantly"},
      {"measurement": "potentiation of murA response by JHIII", "setting": "EcRB2 + VP16CfUSP, 80 μM JHIII with 0.1 μM murA", "result": "potentiated"},
      {"measurement": "MurA + JHIII (JHIII potentiation)", "setting": "EcRB2/USP, 0.1 μM murA + 80 μM JHIII", "result": "+ ((+) indicates observed potentiation that exceeds 2-fold above the levels observed with ecdysteroid alone)"},
      {"measurement": "20E + JHIII (JHIII potentiation)", "setting": "EcRB2/USP, 10 μM 20E + 80 μM JHIII", "result": "+ ((+) indicates observed potentiation that exceeds 2-fold above the levels observed with ecdysteroid alone)"}
    ]},
    {"smiles": "CC(C)CC[C@@H](O)[C@](C)(O)[C@H]1CC[C@@]2(O)C3=CC(=O)[C@]4(O)C[C@@H](O)[C@@H](O)C[C@]4(C)[C@H]3[C@H](O)C[C@]12C", "note": "[murA, muristerone A]", "values": [
      {"measurement": "induction by murA", "setting": "EcRB2 + VP16CfUSP, 1 μM murA", "result": "30-40 fold"},
      {"measurement": "MurA (inducibility)", "setting": "EcRB2/USP, 0.1 μM murA", "result": "+ ((+) designates a change in transcriptional level that exceeds 2.5-fold)"}
    ]}
  ]
}
